Consider four molecules from PMC4643977, “Negative Feedbacks by Isoprenoids on a Mevalonate Kinase Expressed in the Corpora Allata of Mosquitoes” (PLoS ONE, 2015).

The target in data set [1] is T1, Aedes aegypti mevalonate kinase (AaMVK) (Aedes aegypti, UniProt Q176C1).
T1 construct: gene 5567998; recombinant His-tagged full-length AaMVK (397 aa) expressed in E. coli
T1 sequence (Q176C1 1-397): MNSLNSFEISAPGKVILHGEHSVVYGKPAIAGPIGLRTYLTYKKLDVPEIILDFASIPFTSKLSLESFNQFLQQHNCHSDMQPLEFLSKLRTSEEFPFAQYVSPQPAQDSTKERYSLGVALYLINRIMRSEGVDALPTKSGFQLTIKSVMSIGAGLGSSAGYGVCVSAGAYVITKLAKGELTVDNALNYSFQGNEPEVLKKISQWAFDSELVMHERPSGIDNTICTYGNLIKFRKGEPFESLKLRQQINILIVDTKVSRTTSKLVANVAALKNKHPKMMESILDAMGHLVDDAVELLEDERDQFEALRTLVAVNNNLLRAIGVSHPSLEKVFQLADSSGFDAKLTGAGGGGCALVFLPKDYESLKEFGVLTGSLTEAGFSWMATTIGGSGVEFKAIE
Description: PK/LDH-coupled spectrophotometric kinase assay, Ki from varied ATP and inhibitor. Format: biochemical.

Substrate in data set [2]: Nc1ncnc2c1ncn2[C@@H]1O[C@H](COP(=O)(O)OP(=O)(O)OP(=O)(O)O)[C@@H](O)[C@H]1O
As to the kind of experiment: Michaelis-Menten kinetics, PK/LDH-coupled assay (Km). Format: biochemical, Aedes aegypti. The conditions noted are these: Mg2+.

Substrate in data set [3]: C[C@@](O)(CCO)CC(=O)O
As to the kind of experiment: purified protein. Particulars: Mg2+.

The molecule `CC(C)=CCC/C(C)=C/CC/C(C)=C/CC/C(C)=C/COP(=O)(O)OP(=O)(O)O` [GGPP, geranyl-geranyl pyrophosphate] yielded an inhibition constant Ki in data set [1] of 930 ± 190 nM.
With `CC(C)=CCC/C(C)=C/COP(=O)(O)OP(=O)(O)O` [GPP, geranyl diphosphate], the inhibition constant Ki in data set [1] was determined as 550 ± 280 nM.
`CC(C)=CCC/C(C)=C/CC/C(C)=C/CO[P@@](=O)(O)OP(=O)(O)O` (stereo in doubt) [FPP, farnesyl diphosphate]: in data set [1], affinity was put at a Ki of 440 ± 200 nM.

B1: Aedes aegypti mevalonate kinase (AaMVK) (Aedes aegypti) (protein)
chain: T1 sequence (Q176C1 1-397)
notes: recombinant His-tagged full-length AaMVK (397 aa) expressed in E. coli
For B1, the Km in data set [2] came to 140 ± 28 µM; in data set [3], 90 ± 18 µM.
